The record followed here is patent US20250295724A1, “COMPOSITION OF MALUS NIEDZWETZKYANA DIECK AND PRUNUS CERASIFERA EHRHART AND USE THEREOF IN TERMS OF RESISTING ATHEROSCLEROSIS” (priority 2023, published 2025).

Marks after values point to notes of the source that are not given here.

Experiment [1] concerns high-fat diet induced ApoE-/-mice atherosclerosis model (aortic atherosclerotic plaque). Put plainly: Treatment of atherosclerosis: aortic plaque area in high-fat diet induced ApoE-/- mice, samples given for 4 weeks after 17 weeks of modeling. The class given is in vivo.
Source text: (§1) Wild type C57 mice were used as a normal control group, rosuvastatin was used as a positive drug, and the efficacy (i.e., treating effect) of the composition samples in resisting atherosclerosis was investigated in a high-fat diet induced ApoE-/-mice atherosclerosis model. An atherosclerosis model was established after 17 weeks of modeling, and a control group was fed with a common feed for 17 weeks. The sample administration group was continuously administered with the test samples for 4 weeks after 17 weeks of modeling, and thereafter the formation of aortic atherosclerotic plaque in the mice was observed, and the plaque area was measured after dissection to calculate the plaque percentage.
(§2) Wild type C57 mice were used as a normal control group, rosuvastatin and atorvastatin were used as positive drugs, and the efficacy (i.e., treating effect) of the composition mixed samples in resisting atherosclerosis was investigated in a high-fat diet induced ApoE-/-mice atherosclerosis model. An atherosclerosis model was established after 17 weeks of modeling, and a control group was fed with a common feed for 17 weeks. The sample administration group was continuously administered with the test samples for 4 weeks after 17 weeks of modeling, and thereafter the formation of aortic atherosclerotic plaque in the mice was observed, and the plaque area was measured after dissection to calculate the plaque percentage.
as §2, with “aspirin, clopidogrel, colchicine” for “rosuvastatin”, “probucol” for “atorvastatin”
as §1, with “the” for “the composition”
as §1, with “mice were dissected,” for “plaque area was measured after dissection”, “area (percentage).” for “percentage.”

Experiment [2] has the same test system. Put plainly: Prevention of atherosclerosis: aortic plaque area in high-fat diet induced ApoE-/- mice, samples given during 12 weeks of modeling. The conditions noted are these: dose 1.67 mg/kg. The class given is in vivo. The source says:
An atherosclerosis model (namely, model group) was established after 12 weeks of modeling, and a control group (namely normal group) was fed with a common feed for 12 weeks. […] An atherosclerosis model (namely, model group) was established after 12 weeks of modeling, and a control group (namely normal group) was fed with a common feed for 12 weeks.

[3] abbreviates: Table 6, treatment, drug alone 16.7 mg/kg.
Setting [4] is: Table 5, treatment, drug alone 1.67 mg/kg.
Where [5] appears, read: Table 5, treatment, drug alone 3.33 mg/kg.
The mark [6] stands for this setting: Table 6, treatment, drug alone 12.5 mg/kg.
Where [7] appears, read: Table 6, treatment, drug alone 0.167 mg/kg.
Where [8] appears, read: Table 6, treatment, drug alone 83.5 mg/kg.
[9] abbreviates: Table 2, treatment, 4 weeks, dose 1.67 mg/kg.
[10] abbreviates: Table 4, treatment, 4 weeks, dose 1.67 mg/kg.
Setting [11] is: Table 5, treatment, drug alone 0.83 mg/kg.
Setting [12] is: Table 7, treatment, dose 1.67 mg/kg.
The mark [13] stands for this setting: Table 8, treatment, dose 1.67 mg/kg.
Where [14] appears, read: Table 9, treatment, dose 1.67 mg/kg.

As for `CC(=O)Oc1ccccc1C(=O)O` [aspirin], in experiment [1] (setting [3]), the “Inhibition rate compared to the model %” value came to 33.74% and the Plaque area % amounted to 29.91%*.
In the case of `CC(C)c1c(C(=O)Nc2ccccc2)c(-c2ccccc2)c(-c2ccc(F)cc2)n1CC[C@@H](O)C[C@@H](O)CC(=O)O` [atorvastatin], in experiment [1] (setting [4]), the “Inhibition rate compared to the model %” value is given as 18.76% and the Plaque area % turned out to be 32.99%*. Further, in experiment [1] (setting [5]), the “Inhibition rate compared to the model %” value worked out at 28.47% and the Plaque area % worked out at 29.05%*.
For the compound `COC(=O)[C@H](c1ccccc1Cl)N1CCc2sccc2C1` [clopidogrel], in experiment [1] (setting [6]), the “Inhibition rate compared to the model %” value is reported as 32.76% and the Plaque area % turned out to be 30.35%*.
Turning to `COc1cc2c(c(OC)c1OC)-c1ccc(OC)c(=O)cc1[C@@H](NC(C)=O)CC2` [colchicine], in experiment [1] (setting [7]), the “Inhibition rate compared to the model %” value was found to be 25.12% and the Plaque area % is listed as 33.80%*.
For the compound `CC(C)(Sc1cc(C(C)(C)C)c(O)c(C(C)(C)C)c1)Sc1cc(C(C)(C)C)c(O)c(C(C)(C)C)c1` [probucol], in experiment [1] (setting [8]), the “Inhibition rate compared to the model %” value amounted to 21.91% and the Plaque area % was 35.25%*.
With `CC(C)c1nc(N(C)S(C)(=O)=O)nc(-c2ccc(F)cc2)c1/C=C/[C@@H](O)C[C@@H](O)CC(=O)O` [rosuvastain, rosuvastatin], the “Inhibition rate compared to the model %” value was 36.61% in experiment [2] (Table 1, prevention); 30.61% in experiment [2] (Table 3, prevention); 38.69% in experiment [1] (setting [9]); 34.77% in experiment [1] (setting [10]); 16.97% in experiment [1] (setting [11]); 31.40% in experiment [1] (setting [4]). In addition, the “Inhibition rate compared to the model %” value in experiment [1] (setting [12]) worked out at 34.77%; in experiment [1] (setting [13]), 38.69%; in experiment [1] (setting [14]) it was 42.69%. The Plaque area % is 20.93%** in experiment [2] (Table 1, prevention); 24.82% in experiment [2] (Table 3, prevention); 26.10%* in experiment [1] (setting [9]); 25.87%** in experiment [1] (setting [10]); 33.72%* in experiment [1] (setting [11]); 27.86%* in experiment [1] (setting [4]). For the same compound, the Plaque area % in experiment [1] (setting [12]) was found to be 25.87%**; in experiment [1] (setting [13]) it was 26.10%*; in experiment [1] (setting [14]), 27.94%**.
